Experimental data published in DBAASP.
In brackets after ≈: the same amount, converted by molar mass.

How the values were obtained:
Experiment in all cases: ≥ marks a high value that may be exact or a test limit, other limits are often not marked, values filed in µg/mL are converted to µM
[1] = system: Acinetobacter baumannii ATCC 19606
[2] = system: Bordetella bronchiseptica CUN 11844-99
[3] = system: Escherichia coli ATCC 25922
[4] = system: Pseudomonas aeruginosa ATCC 27853
[5] = system: Pseudomonas aeruginosa CUN 4158-02
[6] = system: Staphylococcus aureus ATCC 25923
[7] = system: Staphylococcus aureus ATCC 43300
[8] = system: Staphylococcus aureus CUN 3792-99
[9] = system: Stenotrophomonas maltophilia CUN 3998-00
Bacillus cereus = system: Bacillus cereus
[10] = system: Bacillus subtilis IFO 3134
Enterococcus faecalis = system: Enterococcus faecalis
[11] = system: Escherichia coli IFO 12734
Escherichia coli = system: Escherichia coli
Leuconostoc lactis = system: Leuconostoc lactis
Listeria innocua = system: Listeria innocua
Micrococcus luteus = system: Micrococcus luteus
Pasteurella multocida = system: Pasteurella multocida
[12] = system: Pseudomonas aeruginosa IFO 12582
[13] = system: Staphylococcus aureus IFO 12732
Staphylococcus aureus = system: Staphylococcus aureus
[14] = system: Staphylococcus epidermidis
Streptococcus uberis = system: Streptococcus uberis
Bacillus subtilis = system: Bacillus subtilis
Candida albicans = system: Candida albicans
Cryptococcus neoformans = system: Cryptococcus neoformans
Pseudomonas putida = system: Pseudomonas putida
Saccharomyces cerevisiae = system: Saccharomyces cerevisiae
Salmonella typhimurium = system: Salmonella typhimurium
Serratia marcescens = system: Serratia marcescens
Streptococcus mutans = system: Streptococcus mutans
Streptococcus pneumoniae = system: Streptococcus pneumoniae
Bacillus cereus AS1.126 = system: Bacillus cereus AS1.126
[15] = system: Enterobacter cloacae CGMCC 1.58
[16] = system: Enterococcus faecalis CGMCC 1.595
[17] = system: Enterococcus faecium CGMCC 1.2334
Escherichia coli AS1.349 = system: Escherichia coli AS1.349
[18] = system: Klebsiella aerogenes CGMCC 1.876
[19] = system: Klebsiella pneumoniae subsp. pneumoniae CGMCC 1.176
[20] = system: Lactococcus lactis AS1.1690
[21] = system: Pseudomonas aeruginosa CGMCC 1.860
[22] = system: Staphylococcus aureus AS1.72

Structure (SMILES)	MIC [1] [µM]	MIC [2] [µM]	MIC [3] [µM]	MIC [4] [µM]	MIC [5] [µM]	MIC [6] [µM]	MIC [7] [µM]	MIC [8] [µM]	MIC [9] [µM]	MIC (Bacillus cereus) [µM]	MIC [10] [µM]	MIC (Enterococcus faecalis) [µM]	MIC [11] [µM]	MIC (Escherichia coli) [µM]	MIC (Leuconostoc lactis) [µM]	MIC (Listeria innocua) [µM]	MIC (Micrococcus luteus) [µM]	MIC (Pasteurella multocida) [µM]	MIC [12] [µM]	MIC [13] [µM]	also measured
CC[C@H](C)[C@H](N=C(O)[C@H](C)N=C(O)[C@H](C)N=C(O)[C@@H](N=C(O)[C@@H](N=C(O)[C@H](Cc1cnc[nH]1)N=C(O)[C@H](C)N=C(O)[C@H](C)N=C(O)[C@@H](N=C(O)[C@H](CCCCN)N=C(O)[C@H](C)N=C(O)[C@H](CC(C)C)N=C(O)[C@@H](N=C(O)CN=C(O)[C@H](Cc1ccccc1)N=C(O)[C@H](CC(C)C)N=C(O)CN)C(C)C)C(C)C)C(C)C)C(C)C)C(O)=N[C@@H](C)C(O)=N[C@@H](CCC(=O)O)C(O)=N[C@@H](Cc1cnc[nH]1)C(O)=N[C@@H](Cc1ccccc1)C(=N)O [GLFGVLAKVAAHVVAAIAEHF]	–	–	–	–	–	–	–	–	–	≥ 47.2	8 (≈ 17 µg/mL)	≥ 47.2	≥ 64	> 47.2	5.66 (≈ 12 µg/mL)	≥ 47.2	23.6 (≈ 50 µg/mL)	≥ 47.2	≥ 64	4 (≈ 8.48 µg/mL)	MIC (Staphylococcus aureus): 33.3 µM (≈ 70.7 µg/mL); MIC [14]: ≥ 47.2 µM; MIC (Streptococcus uberis): 23.6 µM (≈ 50 µg/mL)
CC[C@H](C)[C@H](NC(=O)[C@H](C)NC(=O)[C@@H]1CCCN1C(=O)[C@@H](NC(=O)[C@@H](NC(=O)[C@H](Cc1cnc[nH]1)NC(=O)[C@H](C)NC(=O)[C@H](C)NC(=O)[C@@H](NC(=O)[C@H](CCCCN)NC(=O)[C@H](C)NC(=O)[C@H](CC(C)C)NC(=O)[C@@H](NC(=O)CNC(=O)[C@@H](N)Cc1ccccc1)C(C)C)C(C)C)C(C)C)C(C)C)C(=O)N[C@@H](C)C(=O)N[C@@H](CCC(=O)O)C(=O)N[C@@H](Cc1cnc[nH]1)C(=O)N[C@@H](Cc1ccccc1)C(N)=O [FGVLAKVAAHVVPAIAEHF]	–	–	–	–	–	–	–	–	–	≥ 50.6	≥ 64	≥ 50.6	≥ 64	> 50.6	≥ 50.6	≥ 50.6	≥ 50.6	≥ 50.6	≥ 64	≥ 64	MIC [14]: ≥ 50.6 µM; MIC (Streptococcus uberis): ≥ 50.6 µM
CC(C)C[C@H](NC(=O)[C@H](CC(C)C)NC(=O)[C@H](CCCN=C(N)N)NC(=O)[C@H](Cc1cnc[nH]1)NC(=O)[C@@H](NC(=O)[C@H](CCCN=C(N)N)NC(=O)CNC(=O)[C@@H](NC(=O)[C@@H]1CCCN1C(=O)[C@H](Cc1ccccc1)NC(=O)[C@H](CCC(N)=O)NC(=O)[C@H](CC(C)C)NC(=O)CNC(=O)[C@H](C)NC(=O)[C@@H](N)CCCN=C(N)N)C(C)C)C(C)C)C(=O)O [RAGLQFPVGRVHRLL]	–	–	–	–	–	–	–	–	–	–	–	–	–	37.2 (≈ 64 µg/mL)	–	–	–	–	–	–	MIC (Bacillus subtilis): ≥ 37.2 µM; MIC (Candida albicans): > 149 µM; MIC (Cryptococcus neoformans): ≥ 74.5 µM; MIC (Pseudomonas putida): ≥ 37.2 µM; MIC (Saccharomyces cerevisiae): ≥ 149 µM; MIC (Salmonella typhimurium): 18.6 µM (≈ 32 µg/mL); MIC (Serratia marcescens): ≥ 37.2 µM; MIC (Staphylococcus aureus): 74.5 µM (≈ 128 µg/mL); MIC (Streptococcus mutans): ≥ 37.2 µM; MIC (Streptococcus pneumoniae): ≥ 74.5 µM
CC[C@H](C)[C@H](N)C(=O)N[C@@H](CCCCN)C(=O)N[C@@H](CCCCN)C(=O)N[C@H](C(=O)N[C@@H](CC(C)C)C(=O)N[C@@H](CO)C(=O)N[C@@H](CCCCN)C(=O)N[C@H](C(=O)N[C@@H](CCCCN)C(=O)N[C@@H](CCCCN)C(=O)N[C@@H](CC(C)C)C(=O)N[C@@H](CC(C)C)C(N)=O)[C@@H](C)CC)[C@@H](C)CC [IKKILSKIKKLL]	–	–	–	–	–	–	–	–	–	–	–	–	–	–	–	–	–	–	–	–	MIC (Bacillus cereus AS1.126): 3.12 µM (≈ 4.44 µg/mL); MIC [15]: 6.25 µM (≈ 8.9 µg/mL); MIC [16]: 6.25 µM (≈ 8.9 µg/mL); MIC [17]: 6.25 µM (≈ 8.9 µg/mL); MIC (Escherichia coli AS1.349): 3.12 µM (≈ 4.44 µg/mL); MIC [18]: 6.25 µM (≈ 8.9 µg/mL); MIC [19]: 6.25 µM (≈ 8.9 µg/mL); MIC [20]: 3.12 µM (≈ 4.44 µg/mL); MIC [21]: 3.12 µM (≈ 4.44 µg/mL); MIC [22]: 3.12 µM (≈ 4.44 µg/mL)

Continued, in another order:

MIC [1] [µM]	MIC [2] [µM]	MIC [3] [µM]	MIC [4] [µM]	MIC [5] [µM]	MIC [6] [µM]	MIC [7] [µM]	MIC [8] [µM]	MIC [9] [µM]	MIC (Bacillus cereus) [µM]	MIC [10] [µM]	MIC (Enterococcus faecalis) [µM]	MIC [11] [µM]	MIC (Escherichia coli) [µM]	MIC (Leuconostoc lactis) [µM]	MIC (Listeria innocua) [µM]	MIC (Micrococcus luteus) [µM]	MIC (Pasteurella multocida) [µM]	MIC [12] [µM]	MIC [13] [µM]	Structure (SMILES)	also measured
23.1 (≈ 64 µg/mL)	11.6 (≈ 32 µg/mL)	46.2 (≈ 128 µg/mL)	46.2 (≈ 128 µg/mL)	≥ 92.4	46.2 (≈ 128 µg/mL)	46.2 (≈ 128 µg/mL)	≥ 370	≥ 185	–	–	–	–	–	–	–	–	–	–	–	NCCCC[C@H](NC(=O)CNC(=O)[C@H](CCCCN)NC(=O)[C@H](Cc1ccccc1)NC(=O)[C@H](CCCCN)NC(=O)[C@H](Cc1c[nH]c2ccccc12)NC(=O)[C@H](CCCN=C(N)N)NC(=O)[C@H](Cc1ccccc1)NC(=O)[C@H](CCCN=C(N)N)NC(=O)[C@H](CCCN=C(N)N)NC(=O)[C@H](Cc1ccc(O)cc1)NC(=O)[C@H](CCCCN)NC(=O)[C@H](CCCCN)NC(=O)[C@H](CS)NC(=O)CN)C(=O)N[C@@H](Cc1ccccc1)C(=O)N[C@@H](Cc1c[nH]c2ccccc12)C(=O)N[C@@H](Cc1ccccc1)C(=O)N[C@@H](Cc1c[nH]c2ccccc12)C(=O)NCC(=O)NCC(N)=O [GCKKYRRFRWKFKGKFWFWGG]	–
24.1 (≈ 64 µg/mL)	6.02 (≈ 16 µg/mL)	385 (≈ 1020 µg/mL)	96.3 (≈ 256 µg/mL)	≥ 96.3	385 (≈ 1020 µg/mL)	24.1 (≈ 64 µg/mL)	12 (≈ 32 µg/mL)	≥ 385	–	–	–	–	–	–	–	–	–	–	–	CC(C)C[C@H](NC(=O)[C@H](Cc1c[nH]c2ccccc12)NC(=O)[C@H](CC(C)C)NC(=O)[C@H](CCCCN)NC(=O)[C@H](CCC(N)=O)NC(=O)[C@H](CCCCN)NC(=O)[C@H](CS)NC(=O)[C@H](CCCCN)NC(=O)[C@H](CC(C)C)NC(=O)[C@H](CCCCN)NC(=O)[C@H](Cc1ccccc1)NC(=O)[C@H](CCCNC(=N)N)NC(=O)[C@H](CCCNC(=N)N)NC(=O)[C@H](Cc1ccccc1)NC(=O)[C@H](CCCCN)NC(=O)[C@H](CCCCN)NC(=O)[C@H](CS)NC(=O)CN)C(=O)N[C@@H](Cc1c[nH]c2ccccc12)C(=O)N[C@@H](CS)C(=O)NCC(=O)O [GCKKFRRFKLKCKQKLWLWCG]	–
